Measurements as given in the kinase profiling compilation of Christmann-Franck et al. (2016).

Experiments:
Experiment in all cases: SelectScreen, TR FRET
Details in all cases: compound 5.0 µM
PDGFRA (human) = PDGFRA (human) (UniProt P16234)
BLK (human) = BLK (human) (UniProt P51451)
RPS6KA4 KD1 KD2 (human) = RPS6KA4 KD1 KD2 (human) (UniProt O75676)
GRK6 (human) = GRK6 (human) (UniProt P43250)
PAK6 (human) = PAK6 (human) (UniProt Q9NQU5)
AKT2 (human) = AKT2 (human) (UniProt P31751)
DYRK3 (human) = DYRK3 (human) (UniProt O43781)
ROCK2 (human) = ROCK2 (human) (UniProt O75116)
EPHA1 (human) = EPHA1 (human) (UniProt P21709)
[1] = tested on: PDGFRA (human), P16234 [T674I]
PAK4 (human) = PAK4 (human) (UniProt O96013)
KIT (human) = KIT (human) (UniProt P10721)
ADRBK1 (human) = ADRBK1 (human) (UniProt P25098)
PRKCG (human) = PRKCG (human) (UniProt P05129)
[2] = tested on: ABL1 (human), P00519 [T315I]
FLT3 (human) = FLT3 (human) (UniProt P36888)
PRKCD (human) = PRKCD (human) (UniProt Q05655)
YES1 (human) = YES1 (human) (UniProt P07947)
RET (human) = RET (human) (UniProt P07949)
SGK1 (human) = SGK1 (human) (UniProt O00141)
MET (human) = MET (human) (UniProt P08581)
HCK (human) = HCK (human) (UniProt P08631)
PRKCI (human) = PRKCI (human) (UniProt P41743)
PRKX (human) = PRKX (human) (UniProt P51817)
LYN (human) = LYN (human) (UniProt P07948)
[3] = tested on: LYN (human), P07948 [23-43 del]
ROS1 (human) = ROS1 (human) (UniProt P08922)
PASK (human) = PASK (human) (UniProt Q96RG2)
CDK1 CCNB1 (human) = CDK1 CCNB1 (human) (UniProt P06493+P14635)
DYRK4 (human) = DYRK4 (human) (UniProt Q9NR20)
EPHA2 (human) = EPHA2 (human) (UniProt P29317)
PIM1 (human) = PIM1 (human) (UniProt P11309)
EPHB4 (human) = EPHB4 (human) (UniProt P54760)
[4] = tested on: FLT3 (human), P36888 [D835Y]
[5] = tested on: ABL1 (human), P00519 [G250E]
PDPK1 (human) = PDPK1 (human) (UniProt O15530)
GSK3A (human) = GSK3A (human) (UniProt P49840)
PAK3 (human) = PAK3 (human) (UniProt O75914)
MAPK11 (human) = MAPK11 (human) (UniProt Q15759)
ABL1 (human) = ABL1 (human) (UniProt P00519)

DYRK3 (human), sequence (O43781 whole entry, looked up): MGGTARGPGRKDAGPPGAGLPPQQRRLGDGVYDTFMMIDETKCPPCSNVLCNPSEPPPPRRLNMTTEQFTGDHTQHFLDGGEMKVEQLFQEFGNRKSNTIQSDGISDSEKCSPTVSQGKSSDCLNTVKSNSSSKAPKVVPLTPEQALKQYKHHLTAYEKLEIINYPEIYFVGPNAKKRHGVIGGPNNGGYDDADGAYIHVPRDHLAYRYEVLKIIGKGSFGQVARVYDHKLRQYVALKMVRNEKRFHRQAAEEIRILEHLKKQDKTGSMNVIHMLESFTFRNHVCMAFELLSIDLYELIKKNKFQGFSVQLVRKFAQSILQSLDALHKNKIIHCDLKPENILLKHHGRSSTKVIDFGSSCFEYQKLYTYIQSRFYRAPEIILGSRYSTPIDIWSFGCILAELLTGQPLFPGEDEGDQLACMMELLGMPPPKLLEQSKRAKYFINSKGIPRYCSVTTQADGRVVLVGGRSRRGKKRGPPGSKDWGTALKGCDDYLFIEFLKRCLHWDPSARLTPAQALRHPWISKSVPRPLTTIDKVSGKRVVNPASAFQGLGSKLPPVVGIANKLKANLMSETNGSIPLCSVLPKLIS
YES1 (human), sequence (P07947 whole entry, looked up): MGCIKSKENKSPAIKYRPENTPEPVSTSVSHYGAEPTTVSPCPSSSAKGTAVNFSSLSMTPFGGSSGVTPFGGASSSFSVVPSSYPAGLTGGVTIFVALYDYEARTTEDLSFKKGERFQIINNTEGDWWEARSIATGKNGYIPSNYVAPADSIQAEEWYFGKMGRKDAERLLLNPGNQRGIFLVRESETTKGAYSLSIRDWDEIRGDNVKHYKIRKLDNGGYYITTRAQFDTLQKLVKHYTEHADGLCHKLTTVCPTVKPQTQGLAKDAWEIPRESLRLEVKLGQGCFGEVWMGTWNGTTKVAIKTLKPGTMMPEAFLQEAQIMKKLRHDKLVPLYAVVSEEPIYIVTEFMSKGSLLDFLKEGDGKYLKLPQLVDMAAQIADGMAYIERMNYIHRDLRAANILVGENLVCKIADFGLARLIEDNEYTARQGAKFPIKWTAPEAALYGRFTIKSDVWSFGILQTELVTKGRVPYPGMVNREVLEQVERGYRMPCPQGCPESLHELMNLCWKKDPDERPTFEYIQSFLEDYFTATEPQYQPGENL
SGK1 (human), sequence (O00141 whole entry, looked up): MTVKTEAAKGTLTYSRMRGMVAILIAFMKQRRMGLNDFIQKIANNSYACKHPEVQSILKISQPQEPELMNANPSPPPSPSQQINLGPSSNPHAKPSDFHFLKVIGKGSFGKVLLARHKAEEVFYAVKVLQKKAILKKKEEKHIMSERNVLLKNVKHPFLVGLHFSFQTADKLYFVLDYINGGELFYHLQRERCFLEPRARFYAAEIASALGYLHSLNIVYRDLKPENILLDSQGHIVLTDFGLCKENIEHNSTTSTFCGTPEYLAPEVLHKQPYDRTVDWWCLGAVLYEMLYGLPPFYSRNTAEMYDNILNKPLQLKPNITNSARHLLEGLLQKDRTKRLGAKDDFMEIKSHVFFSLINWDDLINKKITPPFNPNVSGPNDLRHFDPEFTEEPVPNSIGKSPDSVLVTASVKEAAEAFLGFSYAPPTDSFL
GSK3A (human), sequence (P49840 whole entry, looked up): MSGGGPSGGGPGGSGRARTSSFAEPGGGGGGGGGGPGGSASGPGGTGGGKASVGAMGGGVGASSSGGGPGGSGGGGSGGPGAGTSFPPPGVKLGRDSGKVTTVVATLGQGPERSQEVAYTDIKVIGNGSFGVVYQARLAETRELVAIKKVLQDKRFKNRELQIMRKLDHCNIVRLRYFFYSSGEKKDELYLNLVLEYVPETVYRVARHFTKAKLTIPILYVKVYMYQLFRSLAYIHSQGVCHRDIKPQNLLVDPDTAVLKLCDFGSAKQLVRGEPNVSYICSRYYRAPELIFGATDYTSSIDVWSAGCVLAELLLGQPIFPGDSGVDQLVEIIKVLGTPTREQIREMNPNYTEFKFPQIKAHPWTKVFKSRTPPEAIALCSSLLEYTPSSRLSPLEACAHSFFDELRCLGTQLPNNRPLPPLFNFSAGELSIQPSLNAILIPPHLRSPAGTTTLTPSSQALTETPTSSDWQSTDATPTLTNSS
EPHB4 (human), sequence (P54760 whole entry, looked up): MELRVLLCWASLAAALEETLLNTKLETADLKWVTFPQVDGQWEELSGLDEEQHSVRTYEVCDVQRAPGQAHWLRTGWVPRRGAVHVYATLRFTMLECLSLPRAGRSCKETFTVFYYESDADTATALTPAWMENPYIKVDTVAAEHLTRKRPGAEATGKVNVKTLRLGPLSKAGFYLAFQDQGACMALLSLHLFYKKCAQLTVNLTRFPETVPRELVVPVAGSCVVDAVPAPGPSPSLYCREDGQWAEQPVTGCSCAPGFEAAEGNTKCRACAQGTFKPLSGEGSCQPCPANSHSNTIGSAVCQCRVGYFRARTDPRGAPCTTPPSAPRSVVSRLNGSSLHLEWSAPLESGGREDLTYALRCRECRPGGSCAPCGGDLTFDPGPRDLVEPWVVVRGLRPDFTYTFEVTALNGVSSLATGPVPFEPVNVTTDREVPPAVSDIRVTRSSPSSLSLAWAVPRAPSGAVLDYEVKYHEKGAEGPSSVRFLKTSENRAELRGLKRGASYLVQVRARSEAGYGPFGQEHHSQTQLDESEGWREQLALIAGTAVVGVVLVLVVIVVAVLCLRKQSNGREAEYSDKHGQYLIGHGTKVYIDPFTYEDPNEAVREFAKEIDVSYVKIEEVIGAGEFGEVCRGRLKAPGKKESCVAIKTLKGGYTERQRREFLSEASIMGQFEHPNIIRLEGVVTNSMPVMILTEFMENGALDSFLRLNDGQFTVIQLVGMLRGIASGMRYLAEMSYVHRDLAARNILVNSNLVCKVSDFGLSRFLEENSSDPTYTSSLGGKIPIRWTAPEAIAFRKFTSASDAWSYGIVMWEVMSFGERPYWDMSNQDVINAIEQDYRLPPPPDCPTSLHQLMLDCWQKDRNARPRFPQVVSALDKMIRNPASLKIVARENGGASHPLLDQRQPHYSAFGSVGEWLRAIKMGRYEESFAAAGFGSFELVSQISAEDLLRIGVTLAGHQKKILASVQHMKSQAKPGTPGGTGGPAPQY
EPHA1 (human), sequence (P21709 whole entry, looked up): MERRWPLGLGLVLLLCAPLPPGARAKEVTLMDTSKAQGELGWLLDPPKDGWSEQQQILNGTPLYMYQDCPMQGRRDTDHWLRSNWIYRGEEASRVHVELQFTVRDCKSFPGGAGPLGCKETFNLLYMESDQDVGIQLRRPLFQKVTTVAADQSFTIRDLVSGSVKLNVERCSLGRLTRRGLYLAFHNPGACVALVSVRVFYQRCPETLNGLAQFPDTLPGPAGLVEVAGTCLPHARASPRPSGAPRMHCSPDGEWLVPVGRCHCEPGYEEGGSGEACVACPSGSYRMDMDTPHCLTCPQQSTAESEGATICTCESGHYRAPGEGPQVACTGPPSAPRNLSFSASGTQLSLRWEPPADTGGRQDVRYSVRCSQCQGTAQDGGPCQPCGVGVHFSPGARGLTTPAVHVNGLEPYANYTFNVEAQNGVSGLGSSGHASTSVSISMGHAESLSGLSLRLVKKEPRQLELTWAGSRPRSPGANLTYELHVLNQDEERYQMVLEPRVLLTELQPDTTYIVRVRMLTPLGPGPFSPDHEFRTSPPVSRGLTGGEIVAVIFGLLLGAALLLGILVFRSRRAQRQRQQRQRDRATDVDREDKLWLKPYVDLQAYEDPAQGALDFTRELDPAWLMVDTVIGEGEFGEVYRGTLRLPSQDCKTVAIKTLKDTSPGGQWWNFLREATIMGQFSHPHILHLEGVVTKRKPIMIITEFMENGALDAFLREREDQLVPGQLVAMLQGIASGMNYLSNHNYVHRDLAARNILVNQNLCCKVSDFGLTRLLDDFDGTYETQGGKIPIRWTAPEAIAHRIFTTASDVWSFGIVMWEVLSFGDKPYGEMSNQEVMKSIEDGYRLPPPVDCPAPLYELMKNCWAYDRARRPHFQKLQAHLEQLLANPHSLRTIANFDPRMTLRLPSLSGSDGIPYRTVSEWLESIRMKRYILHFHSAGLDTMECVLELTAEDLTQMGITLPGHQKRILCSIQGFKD
EPHA2 (human), sequence (P29317 whole entry, looked up): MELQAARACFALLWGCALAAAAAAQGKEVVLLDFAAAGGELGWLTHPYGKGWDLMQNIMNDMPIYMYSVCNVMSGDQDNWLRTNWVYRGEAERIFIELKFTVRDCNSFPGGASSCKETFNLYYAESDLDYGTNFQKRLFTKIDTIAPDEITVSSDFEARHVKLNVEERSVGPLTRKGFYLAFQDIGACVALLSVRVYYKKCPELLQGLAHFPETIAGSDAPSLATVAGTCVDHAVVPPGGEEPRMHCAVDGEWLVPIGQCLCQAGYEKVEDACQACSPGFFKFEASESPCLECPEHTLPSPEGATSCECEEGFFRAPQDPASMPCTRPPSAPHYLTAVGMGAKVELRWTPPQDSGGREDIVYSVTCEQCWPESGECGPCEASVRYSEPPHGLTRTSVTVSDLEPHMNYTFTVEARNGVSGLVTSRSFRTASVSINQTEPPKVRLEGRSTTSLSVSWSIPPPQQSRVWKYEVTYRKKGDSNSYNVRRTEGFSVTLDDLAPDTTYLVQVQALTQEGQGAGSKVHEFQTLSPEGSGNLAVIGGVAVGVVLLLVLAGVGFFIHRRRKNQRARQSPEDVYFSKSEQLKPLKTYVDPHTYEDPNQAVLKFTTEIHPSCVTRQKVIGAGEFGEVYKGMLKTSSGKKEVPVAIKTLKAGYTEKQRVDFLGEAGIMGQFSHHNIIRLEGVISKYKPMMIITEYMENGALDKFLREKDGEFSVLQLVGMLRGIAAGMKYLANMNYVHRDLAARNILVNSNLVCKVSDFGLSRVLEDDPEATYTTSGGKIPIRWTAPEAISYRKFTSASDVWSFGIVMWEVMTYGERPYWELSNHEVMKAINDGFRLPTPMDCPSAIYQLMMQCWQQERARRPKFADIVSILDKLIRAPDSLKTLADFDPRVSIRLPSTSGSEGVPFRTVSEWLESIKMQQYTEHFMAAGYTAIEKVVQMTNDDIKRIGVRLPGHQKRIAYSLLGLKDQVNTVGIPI

inhibition (PDGFRA (human)): 5%
inhibition (BLK (human)): -3%
inhibition (RPS6KA4 KD1 KD2 (human)): 6%
inhibition (GRK6 (human)): 4%
inhibition (PAK6 (human)): 0%
inhibition (AKT2 (human)): 0%
inhibition (DYRK3 (human)): 11%
inhibition (ROCK2 (human)): 3%
inhibition (EPHA1 (human)): -2%
inhibition [1]: 11%
inhibition (PAK4 (human)): -2%
inhibition (KIT (human)): 39%
inhibition (ADRBK1 (human)): 1%
inhibition (PRKCG (human)): 5%
inhibition [2]: 3%
inhibition (FLT3 (human)): 18%
inhibition (PRKCD (human)): 4%
inhibition (YES1 (human)): 12%
inhibition (RET (human)): -4%
inhibition (SGK1 (human)): 25%
inhibition (MET (human)): 5%
inhibition (HCK (human)): 10%
inhibition (PRKCI (human)): 9%
inhibition (PRKX (human)): 0%
inhibition (LYN (human)): 6%
inhibition [3]: 3%
inhibition (ROS1 (human)): 27%
inhibition (PASK (human)): -1%
inhibition (CDK1 CCNB1 (human)): 9%
inhibition (DYRK4 (human)): 3%
inhibition (EPHA2 (human)): 8%
inhibition (PIM1 (human)): 6%
inhibition (EPHB4 (human)): -4%
inhibition [4]: 11%
inhibition [5]: -4%
inhibition (PDPK1 (human)): 4%
inhibition (GSK3A (human)): 5%
inhibition (PAK3 (human)): -1%
inhibition (MAPK11 (human)): 4%
inhibition (ABL1 (human)): 3%
SMILES: Nc1cc(C(F)(F)F)c(-c2cc(N3CCOCC3)nc(N3CCOCC3)n2)cn1
